For test [1], the target named is T1, Ubiquitin-conjugating enzyme E2 N (Homo sapiens, UniProt P61088).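 Note: Dose-response confirmation in a TR-FRET assay detecting UBC13-driven polyubiquitin chain formation, inhibition measured.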
T1 sequence (P61088 whole entry): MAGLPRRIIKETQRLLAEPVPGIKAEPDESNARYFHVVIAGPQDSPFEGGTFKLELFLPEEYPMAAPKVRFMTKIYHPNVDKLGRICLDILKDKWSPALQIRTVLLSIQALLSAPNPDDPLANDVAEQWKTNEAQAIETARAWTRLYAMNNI
Format: functional.

The target in another test is Cytochrome P450 3A4 (Homo sapiens, UniProt P08684). The note with it: Potency.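 Note: confirmatory qHTS run detecting inhibitors and substrates of CYP3A4.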
Sequence of Cytochrome P450 3A4 (P08684 whole entry): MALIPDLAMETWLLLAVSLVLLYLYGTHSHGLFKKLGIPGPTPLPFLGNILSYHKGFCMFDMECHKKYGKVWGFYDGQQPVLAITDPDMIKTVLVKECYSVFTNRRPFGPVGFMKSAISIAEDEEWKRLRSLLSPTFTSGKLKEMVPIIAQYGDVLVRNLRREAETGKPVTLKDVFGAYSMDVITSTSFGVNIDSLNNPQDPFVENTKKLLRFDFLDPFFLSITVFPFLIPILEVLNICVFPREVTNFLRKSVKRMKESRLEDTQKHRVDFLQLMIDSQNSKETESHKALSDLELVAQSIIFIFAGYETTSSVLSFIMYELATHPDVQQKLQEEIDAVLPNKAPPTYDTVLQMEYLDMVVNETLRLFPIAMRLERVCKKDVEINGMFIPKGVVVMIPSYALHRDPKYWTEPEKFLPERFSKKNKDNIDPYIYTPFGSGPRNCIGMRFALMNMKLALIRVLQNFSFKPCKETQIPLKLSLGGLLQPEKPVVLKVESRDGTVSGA
Test [2] concerns the target T2, Voltage-gated N-type calcium channel alpha-1B subunit/Amyloid beta A4 precursor protein-binding family A member 1 (Homo sapiens, UniProt Q00975+Q02410). Format: protein assay.
Test [3] addresses T2, Voltage-gated N-type calcium channel alpha-1B subunit/Amyloid beta A4 precursor protein-binding family A member 1. The format is protein assay. The source holds these as a separate data set.
In test [4] the target is Glyceraldehyde-3-phosphate dehydrogenase (Homo sapiens, UniProt P04406).
Sequence of Glyceraldehyde-3-phosphate dehydrogenase (P04406 whole entry): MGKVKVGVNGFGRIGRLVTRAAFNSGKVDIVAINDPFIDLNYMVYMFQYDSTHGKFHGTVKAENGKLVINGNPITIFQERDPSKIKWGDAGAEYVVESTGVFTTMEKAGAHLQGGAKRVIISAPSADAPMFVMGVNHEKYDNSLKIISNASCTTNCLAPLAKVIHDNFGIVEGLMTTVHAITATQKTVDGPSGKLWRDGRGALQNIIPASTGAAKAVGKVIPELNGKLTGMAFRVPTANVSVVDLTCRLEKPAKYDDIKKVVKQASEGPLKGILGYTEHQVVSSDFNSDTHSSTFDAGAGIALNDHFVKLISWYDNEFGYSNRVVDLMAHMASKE
A short description of test [5]: HEp-2 cell cytotoxicity, dose response, cytotoxicity control for RSV inhibitor project, HTS (AID 2410). The format is functional. The conditions noted are these: human respiratory syncytial virus.
The target in a further test is T3, Aminopeptidase N (Plasmodium falciparum FcB1/Columbia, UniProt O96935).
T3 sequence (O96935 whole entry): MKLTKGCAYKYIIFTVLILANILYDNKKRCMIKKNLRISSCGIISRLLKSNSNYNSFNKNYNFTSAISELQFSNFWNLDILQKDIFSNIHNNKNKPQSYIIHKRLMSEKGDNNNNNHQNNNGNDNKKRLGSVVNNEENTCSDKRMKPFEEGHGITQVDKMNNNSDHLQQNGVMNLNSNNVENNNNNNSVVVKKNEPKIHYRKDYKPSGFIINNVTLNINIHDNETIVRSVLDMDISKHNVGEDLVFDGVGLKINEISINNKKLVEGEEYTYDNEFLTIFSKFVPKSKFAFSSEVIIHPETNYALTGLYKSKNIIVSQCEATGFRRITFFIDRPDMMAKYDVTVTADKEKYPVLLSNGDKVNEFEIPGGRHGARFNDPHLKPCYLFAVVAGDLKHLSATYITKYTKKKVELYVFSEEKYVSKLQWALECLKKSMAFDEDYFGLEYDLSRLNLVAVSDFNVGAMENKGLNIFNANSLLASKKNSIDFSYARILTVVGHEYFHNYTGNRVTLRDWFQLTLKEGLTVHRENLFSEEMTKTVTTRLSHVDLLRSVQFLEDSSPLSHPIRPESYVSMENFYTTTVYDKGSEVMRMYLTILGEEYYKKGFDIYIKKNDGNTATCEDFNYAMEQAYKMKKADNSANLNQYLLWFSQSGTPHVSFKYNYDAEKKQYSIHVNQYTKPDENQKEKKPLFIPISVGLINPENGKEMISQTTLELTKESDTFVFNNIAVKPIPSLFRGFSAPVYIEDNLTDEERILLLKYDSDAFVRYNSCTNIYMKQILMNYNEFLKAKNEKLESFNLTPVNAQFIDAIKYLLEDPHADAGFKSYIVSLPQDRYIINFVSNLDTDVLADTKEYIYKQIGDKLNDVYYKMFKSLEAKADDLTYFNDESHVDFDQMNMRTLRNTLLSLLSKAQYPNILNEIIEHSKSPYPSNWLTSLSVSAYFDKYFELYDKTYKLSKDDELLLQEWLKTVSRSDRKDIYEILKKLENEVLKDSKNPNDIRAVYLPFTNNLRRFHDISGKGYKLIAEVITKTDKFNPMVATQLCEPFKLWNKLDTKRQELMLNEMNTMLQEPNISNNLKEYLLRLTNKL
Kind of test: P. falciparum M1AAP inhibitors, biochemical, fluorogenic H-Leu-NHMec substrate, 1536-well (AID 1445). Also on record: species or system Plasmodium falciparum 3D7, 3D7.

A further test addresses T4, Leucine aminopeptidase (Plasmodium falciparum 3D7, UniProt Q8IL11).
T4 sequence (Q8IL11 whole entry): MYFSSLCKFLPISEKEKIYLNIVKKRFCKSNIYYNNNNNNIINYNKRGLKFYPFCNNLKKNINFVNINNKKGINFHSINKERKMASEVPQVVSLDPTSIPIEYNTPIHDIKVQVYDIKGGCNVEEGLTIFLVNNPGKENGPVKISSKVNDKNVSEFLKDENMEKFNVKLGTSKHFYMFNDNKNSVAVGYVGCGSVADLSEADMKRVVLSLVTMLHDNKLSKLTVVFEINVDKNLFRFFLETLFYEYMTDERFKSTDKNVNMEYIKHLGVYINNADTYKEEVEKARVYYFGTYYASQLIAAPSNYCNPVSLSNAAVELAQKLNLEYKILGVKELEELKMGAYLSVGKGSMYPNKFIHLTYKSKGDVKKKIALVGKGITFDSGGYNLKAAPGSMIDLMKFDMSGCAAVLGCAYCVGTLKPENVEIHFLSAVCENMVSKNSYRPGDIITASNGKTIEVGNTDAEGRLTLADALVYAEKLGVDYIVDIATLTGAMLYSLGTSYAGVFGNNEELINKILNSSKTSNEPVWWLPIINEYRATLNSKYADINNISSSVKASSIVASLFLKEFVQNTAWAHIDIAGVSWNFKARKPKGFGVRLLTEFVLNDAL
Kind of test: P. falciparum M17LAP inhibitors, primary screen, biochemical, fluorogenic H-Leu-NHMec substrate, 1536-well (AID 1619). The format is functional.

The test system of test [6] is HEK293. Briefly: NOD2 signaling inhibitors in MDP-stimulated cells, cell-based, uHTS, luminescence (AID 2001). Format: functional. The conditions noted are these: Homo sapiens.
The subject of test [7] is HEK293. Briefly: NOD1 signaling inhibitors, primary screen, cell-based, luminescence, uHTS (AID 1578). Format: functional. The note with it: Homo sapiens.
For test [8], the target named is Nucleotide-binding oligomerization domain-containing protein 2 (Homo sapiens, UniProt Q9HC29). Kind of test: NOD2 signaling inhibitors, cell-based, luminescence, uHTS, HEK293 (AID 1566). Format: functional.
Sequence of Nucleotide-binding oligomerization domain-containing protein 2 (Q9HC29 whole entry, the tested form may be a part): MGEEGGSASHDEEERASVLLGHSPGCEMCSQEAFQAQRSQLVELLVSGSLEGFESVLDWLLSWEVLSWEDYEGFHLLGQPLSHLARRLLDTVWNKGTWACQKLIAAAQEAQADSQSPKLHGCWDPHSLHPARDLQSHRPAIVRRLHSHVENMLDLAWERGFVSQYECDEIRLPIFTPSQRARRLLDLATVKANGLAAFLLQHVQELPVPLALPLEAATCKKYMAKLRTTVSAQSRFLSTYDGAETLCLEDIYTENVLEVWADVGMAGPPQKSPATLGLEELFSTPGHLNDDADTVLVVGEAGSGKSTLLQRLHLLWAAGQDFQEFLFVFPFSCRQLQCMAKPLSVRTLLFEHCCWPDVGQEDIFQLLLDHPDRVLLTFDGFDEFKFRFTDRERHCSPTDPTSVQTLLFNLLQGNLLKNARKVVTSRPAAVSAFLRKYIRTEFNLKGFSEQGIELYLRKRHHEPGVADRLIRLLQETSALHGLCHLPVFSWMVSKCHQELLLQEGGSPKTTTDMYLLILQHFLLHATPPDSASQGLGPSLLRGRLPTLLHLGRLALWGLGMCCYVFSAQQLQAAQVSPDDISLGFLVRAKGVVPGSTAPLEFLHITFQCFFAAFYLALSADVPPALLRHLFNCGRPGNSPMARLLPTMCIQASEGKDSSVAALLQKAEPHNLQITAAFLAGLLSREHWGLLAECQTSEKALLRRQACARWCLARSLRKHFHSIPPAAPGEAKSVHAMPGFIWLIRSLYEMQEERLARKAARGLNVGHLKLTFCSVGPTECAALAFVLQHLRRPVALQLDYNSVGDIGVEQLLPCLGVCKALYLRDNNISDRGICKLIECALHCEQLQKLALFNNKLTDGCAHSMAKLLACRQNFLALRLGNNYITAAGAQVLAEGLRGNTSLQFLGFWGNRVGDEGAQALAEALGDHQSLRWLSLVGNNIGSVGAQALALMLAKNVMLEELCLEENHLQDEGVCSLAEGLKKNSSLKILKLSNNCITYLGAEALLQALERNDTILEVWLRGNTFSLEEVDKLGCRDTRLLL
The subject of test [9] is HEK293. Briefly: cells. Format: functional, cell-based. The conditions noted are these: Homo sapiens.
Test [10] deals with HEK293. Kind of test: cells. Format: functional, cell-based. The conditions noted are these: Homo sapiens. The source holds these as a separate data set.
The test system of test [11] is HEK293. Briefly: cells. The format is functional, cell-based. The conditions noted are these: Homo sapiens. This is another data set of the same source.
In another test the test system is Vero. Briefly: cells. The format is functional. The note with it: Chlorocebus sabaeus.
Another test concerns the target T5, Protein RecA (Mycobacterium tuberculosis, UniProt P9WHJ3).
T5 sequence (P9WHJ3 whole entry): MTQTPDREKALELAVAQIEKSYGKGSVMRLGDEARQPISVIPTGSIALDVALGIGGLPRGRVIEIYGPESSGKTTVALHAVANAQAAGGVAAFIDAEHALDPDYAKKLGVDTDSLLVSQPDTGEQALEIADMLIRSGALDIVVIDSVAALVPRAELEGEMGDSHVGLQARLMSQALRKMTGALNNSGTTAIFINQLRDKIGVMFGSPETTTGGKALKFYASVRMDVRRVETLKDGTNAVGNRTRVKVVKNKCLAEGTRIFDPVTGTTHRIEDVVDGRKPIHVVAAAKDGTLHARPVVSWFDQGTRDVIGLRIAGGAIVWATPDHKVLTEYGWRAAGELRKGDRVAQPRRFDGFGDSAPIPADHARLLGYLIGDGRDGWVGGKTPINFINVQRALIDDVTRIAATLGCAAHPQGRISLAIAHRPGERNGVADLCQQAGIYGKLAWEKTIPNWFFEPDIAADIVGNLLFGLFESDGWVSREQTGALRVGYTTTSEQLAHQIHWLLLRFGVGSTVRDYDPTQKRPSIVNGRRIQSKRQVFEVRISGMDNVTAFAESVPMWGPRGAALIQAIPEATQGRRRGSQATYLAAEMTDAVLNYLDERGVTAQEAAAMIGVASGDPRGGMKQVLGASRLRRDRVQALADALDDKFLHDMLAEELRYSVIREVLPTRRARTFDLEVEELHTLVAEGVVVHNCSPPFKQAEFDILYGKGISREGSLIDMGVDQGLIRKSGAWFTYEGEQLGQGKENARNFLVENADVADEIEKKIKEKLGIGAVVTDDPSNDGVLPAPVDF
Kind of test: Fluorescence Cell-Free Homogeneous Dose Retest to Identify Inhibitors of RecA-Intein Splicing Activity. [Related pubchem assays (depositor defined):AID2097, AID2223, AID489010, AID492950]. Format: functional.

The target of test [12] is T6, Replicative DNA helicase DnaB (Mycobacterium tuberculosis, UniProt P9WMR3).
T6 sequence (P9WMR3 whole entry): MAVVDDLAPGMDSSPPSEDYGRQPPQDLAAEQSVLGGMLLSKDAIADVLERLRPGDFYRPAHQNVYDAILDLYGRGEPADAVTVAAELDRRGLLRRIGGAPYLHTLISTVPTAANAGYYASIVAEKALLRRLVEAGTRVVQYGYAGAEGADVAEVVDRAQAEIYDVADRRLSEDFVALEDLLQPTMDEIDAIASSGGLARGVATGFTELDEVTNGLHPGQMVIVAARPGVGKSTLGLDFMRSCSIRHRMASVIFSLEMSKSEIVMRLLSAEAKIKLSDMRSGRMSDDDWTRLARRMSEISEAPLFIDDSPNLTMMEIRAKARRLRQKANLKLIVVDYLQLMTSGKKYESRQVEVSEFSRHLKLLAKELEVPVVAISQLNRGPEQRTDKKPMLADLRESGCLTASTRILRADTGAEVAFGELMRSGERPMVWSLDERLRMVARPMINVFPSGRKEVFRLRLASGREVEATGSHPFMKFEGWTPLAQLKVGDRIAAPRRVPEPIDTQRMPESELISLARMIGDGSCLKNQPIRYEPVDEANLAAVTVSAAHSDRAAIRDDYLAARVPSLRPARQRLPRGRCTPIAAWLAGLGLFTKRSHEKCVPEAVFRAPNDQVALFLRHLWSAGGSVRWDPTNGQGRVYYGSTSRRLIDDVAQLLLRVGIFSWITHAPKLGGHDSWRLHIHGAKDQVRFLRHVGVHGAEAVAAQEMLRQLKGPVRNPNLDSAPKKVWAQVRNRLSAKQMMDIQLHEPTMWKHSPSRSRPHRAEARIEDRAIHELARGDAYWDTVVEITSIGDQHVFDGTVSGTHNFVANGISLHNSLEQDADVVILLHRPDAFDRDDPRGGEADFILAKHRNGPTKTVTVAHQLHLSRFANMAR
Kind of test: DnaB intein splicing inhibitors, dose response, biochemical, cell-free fluorescence (AID 449749). The format is functional.

The source of these data is ChEMBL document CHEMBL1201862, “PubChem BioAssay data set” (2004).

The structures appear in SMILES notation. Calls of active or inactive are those of the source.

T2 sequence (Q00975 whole entry): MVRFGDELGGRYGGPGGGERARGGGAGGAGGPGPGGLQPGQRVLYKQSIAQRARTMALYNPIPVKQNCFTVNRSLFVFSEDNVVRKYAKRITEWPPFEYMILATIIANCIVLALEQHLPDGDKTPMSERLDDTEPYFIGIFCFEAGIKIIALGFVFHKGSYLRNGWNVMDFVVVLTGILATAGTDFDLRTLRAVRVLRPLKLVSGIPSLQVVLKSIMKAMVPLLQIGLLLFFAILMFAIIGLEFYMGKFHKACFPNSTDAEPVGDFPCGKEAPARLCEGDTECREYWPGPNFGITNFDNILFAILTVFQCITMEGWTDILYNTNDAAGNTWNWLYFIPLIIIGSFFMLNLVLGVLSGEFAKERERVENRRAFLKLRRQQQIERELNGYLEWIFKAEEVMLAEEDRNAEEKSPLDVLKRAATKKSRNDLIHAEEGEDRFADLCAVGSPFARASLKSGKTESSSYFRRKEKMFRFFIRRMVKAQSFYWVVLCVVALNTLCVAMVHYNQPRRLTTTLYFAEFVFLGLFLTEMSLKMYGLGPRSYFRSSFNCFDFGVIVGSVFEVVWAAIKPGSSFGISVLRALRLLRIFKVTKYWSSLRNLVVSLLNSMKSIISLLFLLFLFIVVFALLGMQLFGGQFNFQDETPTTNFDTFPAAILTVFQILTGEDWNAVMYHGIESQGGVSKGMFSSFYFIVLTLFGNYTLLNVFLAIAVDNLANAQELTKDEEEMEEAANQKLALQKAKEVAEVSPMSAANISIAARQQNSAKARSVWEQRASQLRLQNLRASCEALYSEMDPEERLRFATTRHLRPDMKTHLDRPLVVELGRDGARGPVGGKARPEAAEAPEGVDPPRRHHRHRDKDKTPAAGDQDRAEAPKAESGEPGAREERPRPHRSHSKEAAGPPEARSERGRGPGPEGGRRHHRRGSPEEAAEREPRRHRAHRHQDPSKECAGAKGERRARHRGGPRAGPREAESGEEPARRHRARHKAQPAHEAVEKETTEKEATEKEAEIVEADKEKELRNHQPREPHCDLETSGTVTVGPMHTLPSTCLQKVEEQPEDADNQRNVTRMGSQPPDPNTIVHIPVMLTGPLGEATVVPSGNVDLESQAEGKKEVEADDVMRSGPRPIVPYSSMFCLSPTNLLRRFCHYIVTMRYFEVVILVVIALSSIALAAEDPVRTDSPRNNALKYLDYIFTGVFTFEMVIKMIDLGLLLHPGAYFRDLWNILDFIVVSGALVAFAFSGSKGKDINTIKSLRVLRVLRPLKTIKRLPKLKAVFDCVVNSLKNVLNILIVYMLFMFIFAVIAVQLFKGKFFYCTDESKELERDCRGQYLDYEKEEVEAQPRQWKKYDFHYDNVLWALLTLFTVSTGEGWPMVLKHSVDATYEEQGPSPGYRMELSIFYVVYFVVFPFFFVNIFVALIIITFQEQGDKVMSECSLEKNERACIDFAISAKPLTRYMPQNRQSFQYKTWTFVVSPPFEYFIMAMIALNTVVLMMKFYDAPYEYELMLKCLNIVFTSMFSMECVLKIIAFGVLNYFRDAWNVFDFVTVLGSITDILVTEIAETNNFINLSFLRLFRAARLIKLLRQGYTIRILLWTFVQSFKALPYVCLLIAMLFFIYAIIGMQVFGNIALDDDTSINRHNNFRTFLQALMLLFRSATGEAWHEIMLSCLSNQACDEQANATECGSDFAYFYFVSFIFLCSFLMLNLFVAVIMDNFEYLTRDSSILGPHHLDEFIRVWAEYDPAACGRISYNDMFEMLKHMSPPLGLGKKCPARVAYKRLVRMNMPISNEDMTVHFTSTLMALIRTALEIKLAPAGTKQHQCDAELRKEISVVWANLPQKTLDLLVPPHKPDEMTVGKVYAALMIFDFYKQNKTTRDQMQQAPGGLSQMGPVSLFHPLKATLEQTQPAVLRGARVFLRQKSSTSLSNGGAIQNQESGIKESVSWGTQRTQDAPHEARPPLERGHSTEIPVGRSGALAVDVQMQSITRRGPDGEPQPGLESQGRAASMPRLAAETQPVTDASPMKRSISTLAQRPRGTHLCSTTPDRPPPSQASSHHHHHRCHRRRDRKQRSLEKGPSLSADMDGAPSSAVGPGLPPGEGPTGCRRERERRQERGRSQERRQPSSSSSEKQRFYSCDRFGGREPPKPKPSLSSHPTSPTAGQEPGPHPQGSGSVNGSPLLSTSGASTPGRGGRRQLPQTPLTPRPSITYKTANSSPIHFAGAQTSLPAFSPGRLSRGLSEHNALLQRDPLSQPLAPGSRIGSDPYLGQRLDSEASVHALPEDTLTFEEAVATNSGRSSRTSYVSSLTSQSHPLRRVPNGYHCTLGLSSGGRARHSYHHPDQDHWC
T2 sequence (Q02410 whole entry): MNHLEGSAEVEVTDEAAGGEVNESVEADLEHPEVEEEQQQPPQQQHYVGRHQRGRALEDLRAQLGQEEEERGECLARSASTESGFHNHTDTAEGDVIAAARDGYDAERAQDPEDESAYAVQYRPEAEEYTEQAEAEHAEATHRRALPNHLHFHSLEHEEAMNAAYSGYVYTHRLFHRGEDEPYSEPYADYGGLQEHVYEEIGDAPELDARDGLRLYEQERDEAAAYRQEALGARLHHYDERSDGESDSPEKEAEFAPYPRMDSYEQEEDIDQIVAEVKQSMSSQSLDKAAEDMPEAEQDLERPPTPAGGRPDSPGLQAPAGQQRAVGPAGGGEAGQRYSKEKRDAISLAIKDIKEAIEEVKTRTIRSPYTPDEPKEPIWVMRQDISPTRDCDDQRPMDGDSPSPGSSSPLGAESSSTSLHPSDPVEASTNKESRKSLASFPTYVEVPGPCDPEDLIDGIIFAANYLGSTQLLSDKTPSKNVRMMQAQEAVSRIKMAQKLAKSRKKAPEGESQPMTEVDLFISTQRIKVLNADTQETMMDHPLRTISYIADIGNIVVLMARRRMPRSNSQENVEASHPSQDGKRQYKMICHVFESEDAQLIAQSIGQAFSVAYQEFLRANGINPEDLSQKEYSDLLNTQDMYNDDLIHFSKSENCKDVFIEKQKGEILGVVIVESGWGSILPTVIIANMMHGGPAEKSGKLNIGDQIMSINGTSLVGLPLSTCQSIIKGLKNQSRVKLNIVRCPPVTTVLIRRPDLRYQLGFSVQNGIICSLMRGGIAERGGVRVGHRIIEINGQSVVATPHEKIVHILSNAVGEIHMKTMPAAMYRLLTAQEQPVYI

On to `Cc1cc(C)cc(N(C(=O)c2snc(C(N)=O)c2N)C(C(=O)NCC2CCCO2)c2cccs2)c1` (configuration not stated), for which, in test [1], the IC50 is > 20 µM (inactive).
For the compound `Cc1cccc2c3c(ccc12)C1=C(C(=O)C3=O)C(C)CO1` (configuration not stated), on Cytochrome P450 3A4, the AC50 was 12.6 µM (inconclusive).
With `O=c1cc(CO)oc(C(Nc2cccc(C(F)(F)F)c2)c2ccccn2)c1O` (configuration not stated), the IC50 is 1.09 µM (active) in test [2], > 20 µM (inactive) in test [1] and 8.71 µM (active) in [3].
Take `O=C1C(Cl)=C(N2CCN(CCO)CC2)C(=O)N1c1ccc(C(F)(F)F)cc1`: the IC50 in test [4] was > 50 µM (inconclusive).
For the compound `CC1(C)C(O)CC[C@]2(C)C1CC[C@@]1(C)C2C(=O)C=C2[C@@H]3C[C@@](C)(C(=O)O)CC[C@@]3(C)CCC21C` (some centres not stated), the AC50 on Cytochrome P450 3A4 was 39.8 µM (inconclusive).
As for `COc1ccccc1NC(=O)c1cc(S(=O)(=O)NCc2ccccc2)ccc1F`, in test [1], the IC50 was > 20 µM (inactive).
Consider `COC(=O)c1cc(Nc2cc(C)c3c(O)cccc3n2)cc(C(=O)OC)c1`, for which the CC50 in [5] was 44.4 µM (active). Moreover, in the test “cells”, the IC50 was > 50 µM (active).
Take `COc1ccc(C(=O)CC(=O)c2c(O)cc(OC)cc2OC)cc1`: the AC50 on Cytochrome P450 3A4 was 3.98 µM (inconclusive).
Consider `COc1ccc(-n2c(C)cc(/C=C3\C(=N)N4N=C(CC(=O)N5CCOCC5)SC4=NC3=O)c2C)c(OC)c1`, for which, in [5], the CC50 is 11.1 µM (active). Further, in “cells”, the IC50 was 11.7 µM (active).
For the compound `COc1ccccc1CNC(=O)C1CCCN1S(=O)(=O)c1cccc2cccnc12` (configuration not stated), the IC50 in the test “cells” is 18.6 µM (active).
On to `C=CCSc1nnc(NC(=O)c2nc(SCC)ncc2Cl)s1`, for which the IC50 at Aminopeptidase N was 94.3 µM (active); on Leucine aminopeptidase, 10.8 µM (active).
As to `Cc1c(-c2ccc(OCc3ccccc3)cc2)nc2ccccc2c1C(=O)O`, in test [5], the CC50 was 42.6 µM (active). Besides, the IC50 in “cells” is 24.7 µM (active).
For the compound `CCn1c(SCC(=O)Nc2nc(-c3ccccc3)cs2)nnc1-c1ccccc1`, the IC50 is 5.74 µM (active) with HEK293 [6], 11.3 µM (active) in the test with HEK293 [9], 6.13 µM (active) in the test on HEK293 [10] and > 20 µM (inactive) in the test on HEK293 [11]. In addition, the EC50 is 7.28 µM (active) in the test on HEK293 [7] and 7.91 µM (active) in test [8].
In the case of `Nc1nonc1-c1nc2ccccc2n1CC(=O)N/N=C/c1ccc(-c2ccccc2C(=O)O)o1`, the IC50 on Aminopeptidase N was 82.7 µM (active); on Leucine aminopeptidase, 73.8 µM (active).
`CCOC(=O)C1=C(COCCN)N=C(C)/C(=C(/O)OC)C1c1ccccc1Cl` (configuration not stated): the IC50 in [1] was > 20 µM (inactive). Also, the CC50 in the test on Vero was > 25 µM (active).
In the case of `C/C(CC(=O)Nc1cc(C)ccn1)=N\NC(=O)COc1cccc(C)c1`, on Protein RecA, the EC50 was 1.54 µM (active). Moreover, the AC50 in test [12] is 2.37 µM (active). For the same compound, the IC50 at Leucine aminopeptidase was 90.2 µM (active).
`CCN(CC)C(=O)c1cc(-c2ccc(Cl)cc2Cl)n[nH]1`: the IC50 in test [4] was > 10 µM (inconclusive).

In general, IC50 refers to the midpoint of a concentration-inhibition curve. As usually defined, the AC50 is the concentration at which the activity in the assay is half-maximal. In general, CC50 refers to the concentration that lowers cell viability or growth by half. Usually EC50 stands for the concentration at which the effect is half-maximal.
